From PubChem BioAssay (NCI)
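Five compound concentrations were applied to cells in 96-well plates for 48 hours; endpoints were derived by simple linear interpolation of the resulting dose-response curve. Abbreviation: GI50, concentration required for 50% inhibition of growth. TGI marks complete inhibition of growth.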

Experiments:
Test in all cases: growth of human tumour cells (NCI), 48 h
[1] = test system: 786-0 renal
[2] = test system: HOP-92 NSCLC
[3] = test system: SW-620 colon
[4] = test system: T-47D breast
[5] = test system: U251 CNS
[6] = test system: SK-MEL-5 melanoma
[7] = test system: UACC-257 melanoma
[8] = test system: BT-549 breast
[9] = test system: HCT-116 colon
[10] = test system: HT29 colon

| SMILES | GI50 [1] [µM] | TGI [1] [µM] | GI50 [2] [µM] | TGI [2] [µM] | GI50 [3] [µM] | TGI [3] [µM] | GI50 [4] [µM] | TGI [4] [µM] | GI50 [5] [µM] | TGI [5] [µM] | GI50 [6] [µM] | TGI [6] [µM] | GI50 [7] [µM] | TGI [7] [µM] | GI50 [8] [µM] | TGI [8] [µM] | GI50 [9] [µM] | TGI [9] [µM] | GI50 [10] [µM] | TGI [10] [µM] |
| --- | --- | --- | --- | --- | --- | --- | --- | --- | --- | --- | --- | --- | --- | --- | --- | --- | --- | --- | --- | --- |
| Nc1nc(Nc2ccccc2SSc2ccccc2Nc2nc(N)nc(C(Cl)(Cl)Cl)n2)nc(C(Cl)(Cl)Cl)n1 | 7 | 19.9 | 4.33 | 21.4 | 2.67 | 7.99 | 2.79 | 39.2 | 2.29 | 5.85 | 5.97 | 32.2 | 11.7 | 92.9 | 3.34 | 35.7 | 4.82 | 16.9 | 22.3 | 79.7 |
| N#CCCN1C/C(=C/c2ccc(Cl)cc2)C(=O)/C(=C/c2ccc(Cl)cc2)C1 | 0.868 | 2.77 | 1.81 | 5 | 0.338 | 1.15 | 3.12 | 13.8 | 0.417 | 1.48 | 1.59 | 2.98 | 2.05 | 4.38 | 1.24 | 2.65 | 0.25 | 0.59 | 0.238 | 0.574 |
| c1ccc(CCc2cccnc2)nc1 | – | > 100 | – | > 100 | – | > 100 | – | > 100 | – | > 100 | – | > 100 | – | > 100 | – | > 100 | – | > 100 | – | > 100 |
| CCc1cccc(C)c1NC(=O)c1sc2nc3c(cc2c1N)C(=O)CCC3 | 0.734 | > 100 | 0.644 | 74.7 | 0.4 | > 100 | 0.665 | > 78.5 | 0.659 | > 100 | 0.353 | 5.89 | 12.5 | 76.1 | 8.58 | > 100 | 0.564 | > 100 | 0.411 | 2.3 |
| OCCNC1c2cc(Cl)ccc2-c2c(Cl)cc(Cl)cc21 (stereo not given) | – | > 100 | – | 55.8 | – | > 100 | – | > 100 | – | > 100 | – | > 100 | – | > 100 | – | > 100 | – | > 100 | – | > 100 |
| COC1C(O)C(CO)OC(OC2C(O)COC(OC3C(C)OC(OC4C(O[C@H]5CC[C@@]6(C)C(CC=C7[C@H]6CCC68C(=O)O[C@@](C)(CCCC(C)C)[C@H]6[C@@H](OC(C)=O)C[C@@]78C)C5(C)C)OCC(OS(=O)(=O)O)C4O)C(OC4OCC(O)C(O)C4O)C3O)C2O)C1O (stereo not given in full) | 0.134 | 0.349 | 0.0934 | 0.842 | 0.0952 | 0.272 | 0.2 | 0.529 | 0.12 | 0.272 | 0.473 | 1.13 | 1.51 | 3.54 | 0.226 | 0.523 | 0.0886 | 0.229 | 0.0795 | 0.221 |
